pIC50: −log10 of the molar value.

One may read the melting point as the temperature, or range, at which the solid turns liquid. Usually pIC50 stands for the negative decadic logarithm of the IC50, by convention in mol/L.

In data set [1] the test system is NRK-49F cells. Kind of data set: Collagen synthesis inhibition test. Conditions: Rattus norvegicus, 25 ng/mL TGF-β added, cultured about 44 hr, 3H-labeled proline taken into collagen, no TGF-β = 100% inhibition, no test compound = 0% inhibition, read-out: Collagen synthesis inhibiting activity IC50. The format is cell-based. On the procedure: Collagen Synthesis Inhibition Test
Collagen synthesis inhibiting activity was evaluated by the following assay.
NRK-49F cells (Dainippon Pharmaceutical) are seeded into a 96-well plate. After becoming confluent, the medium is changed to a serum-free Dulbecco's modified MEM medium (Invitrogen) containing 5 μg/mL insulin, 5 μg/mL transferin, and 5 ng/mL selenious acid. One day later, the medium is changed to a serum-free Dulbecco's modified MEM medium (80 μl) containing 10 ng/mL IGF-II (Sigma) and 50 μg/mL L-ascorbic acid (Sigma), and a ten times concentration of a test compound (10 μl) is added thereto. Thirty minutes later, 25 ng/mL TGF-β (R&D System: 10 μL) is added to the medium, and the cells are cultured for about 44 hr. Twenty four hours before the termination of the culturing, ^3H-labeled proline (Amersham: 1 μCi) is added so as to be taken into collagen in the cells. When the culturing is terminated, 30% trichloroacetic acid (50 μL) is added to the medium. After leaving for 20 min, proteins are precipitated by centrifugation at 3000 rpm for 10 min. The supernatant is removed, and the residue is twice washed with 200 μL of a washing solution (ethanol:ether=3:1). The precipitate is air-dried, and the washing solution is sufficiently removed. After addition of 60 μL of a collagenase solution (2 mg/mL collagenase VII (Sigma), 50 mM Tris-HCl (pH 7.4), 5 mM CaCl2), the resulting mixture is treated at 37° C. for 2 hr to decompose collagen. Then, 90 μL of 15% trichloroacetic acid and 5% tannic acid are added thereto. The resulting mixture is left for 20 min and then centrifuged at 3000 rpm for 10 min. The supernatant (50 μL) is transferred to LumaPlate (PerkinElmer Lifescience) and is air-dried. Then, the amount of ^3H is measured by a Top Count.

The molecule `Cc1cccc(-c2[nH]c(C(C)C)nc2-c2cccc(-c3ccc(S(C)(=O)=O)cc3)c2)n1` [Example 17, 2-{2-Isopropyl-4-[4′-(methylsulfonyl)-1,1′-biphenyl-3-yl]-1H-imidazol-5-yl}-6-methylpyridine] gave a melting point of 104 to 106 °C. Moreover, in data set [1], the pIC50 was 6.46. For `Cc1cccc(-c2[nH]c(C(C)C)nc2-c2ccc(F)c(-c3ccc(C(=O)NC4CCOCC4)cc3)c2)n1` [Example 65, N-(Tetrahydropyran-4-yl)-4-{2-fluoro-5-[2-isopropyl-5-(6-methylpyridin-2-yl)-1H-imidazol-4-yl]phenyl}benzamide] the same measures were 130 to 132 °C and 6.28. The corresponding values for `Cc1cccc(-c2nc(C(C)C)[nH]c2-c2ccc(F)c(-c3cnn(C)c3)c2)n1` [Example 110, 2-{5-[4-Fluoro-3-(1-methyl-1H-pyrazol-4-yl)phenyl]-2-isopropyl-1H-imidazol-4-yl}-6-methylpyridine] are 77 to 97 °C and 7.30. Molecule `Cc1cccc(-c2nc[nH]c2-c2ccc(F)c(-c3cnn(C)c3)c2)n1` [Example 121, 2-{5-[4-Fluoro-3-(1-methyl-1H-pyrazol-4-yl)phenyl]-1H-imidazol-4-yl}-6-methylpyridine] displayed a melting point of 205 °C. For the same molecule, the negative logarithm of the IC50 (pIC50) in data set [1] is 8.00. `Cc1cccc(-c2[nH]c(C(C)C)nc2-c2ccc(F)c(-c3ccc4c(c3)CCS4(=O)=O)c2)n1` [Example 125, 2-{4-[3-(1,1-Dioxido-2,3-dihydro-1-benzothien-5-yl)-4-fluorophenyl]-2-isopropyl-1H-imidazol-5-yl}-6-methylpyridine]: the melting point was in the range of 119 to 123 °C. Moreover, the pIC50 in data set [1] was 6.64.

`Cc1cccc(-c2[nH]c(C(C)C)nc2-c2ccc(F)c(-c3ccc(S(N)(=O)=O)cc3)c2)n1` [Example 127, 2′-Fluoro-5′-[2-isopropyl-5-(6-methylpyridin-2-yl)-1H-imidazol-4-yl]-1,1′-biphenyl-4-sulfonamide]: the melting point was 245 to 246 °C. In addition, the pIC50 in data set [1] is 6.10.

`Cc1cccc(-c2[nH]c(C(C)C)nc2-c2ccc(F)c(-c3cn(C)cn3)c2)n1` [Example 130, 2-{4-[4-Fluoro-3-(1-methyl-1H-imidazol-4-yl)phenyl]-2-isopropyl-1H-imidazol-5-yl}-6-methylpyridine] returned a melting point of 100 to 103 °C. Further, the pIC50 in data set [1] was 6.74. For `Cc1cccc(-c2[nH]c(C(C)C)nc2-c2ccc(F)c(-c3c[nH]cn3)c2)n1` [Example 137, 2-{4-[4-Fluoro-3-(1H-imidazol-4-yl)phenyl]-2-isopropyl-1H-imidazol-5-yl}-6-methylpyridine] the same measures were 268 to 270 °C and 7.15.

In the case of `Cc1cccc(-c2n[nH]cc2-c2ccc(F)c(-c3ccc4c(c3)CCS4(=O)=O)c2)n1` [Example 146, 2-{4-[3-(1,1-Dioxido-2,3-dihydro-1-benzothien-5-yl)-4-fluorophenyl]-1H-pyrazol-3-yl}-6-methylpyridine], the melting point was 107 to 109 °C. Further, the negative-log IC50 (pIC50) in data set [1] was 7.10.

As for `Cc1cccc(-c2n[nH]cc2-c2ccc(F)c(-c3ccc(C(C)(C)O)cn3)c2)n1` [Example 160, 2-(6-{2-Fluoro-5-[3-(6-methylpyridin-2-yl)-1H-pyrazol-4-yl]phenyl}pyridin-3-yl)propan-2-ol], the melting point is 169 to 172 °C. Moreover, in data set [1], the negative logarithm of the IC50 (pIC50) is 6.72.

The molecule `Cc1cccc(-c2n[nH]cc2-c2ccc(F)c(-c3c[nH]c(C(C)(C)O)n3)c2)n1` [Example 161, 2-(4-{2-Fluoro-5-[3-(6-methylpyridin-2-yl)-1H-pyrazol-4-yl]phenyl}-1H-imidazol-2-yl)propan-2-ol] returned a melting point of 135 to 137 °C. Further, in data set [1], the pIC50 is 7.00.

Consider `Cc1cccc(-c2n[nH]cc2-c2ccc(F)c(-c3cnn(CCO)c3)c2)n1` [Example 162, 2-(4-{2-Fluoro-5-[3-(6-methylpyridin-2-yl)-1H-pyrazol-4-yl]phenyl}-1H-pyrazol-1-yl)ethanol], for which the pIC50 in data set [1] is 7.52.

In the case of `Cc1cccc(-c2n[nH]cc2-c2ccc(F)c(-c3cn(C)cn3)c2)n1` [Example 172, 2-{4-[4-Fluoro-3-(1-methyl-1H-imidazol-4-yl)phenyl]-1H-pyrazol-3-yl}-6-methylpyridine], the melting point lay within 168 to 169 °C. For the same molecule, in data set [1], the pIC50 is 7.70. In the case of `Cc1cccc(-c2n[nH]cc2-c2ccc(F)c(-c3cn(CCO)cn3)c2)n1` [Example 177, 2-(4-{2-Fluoro-5-[3-(6-methylpyridin-2-yl)-1H-pyrazol-4-yl]phenyl}-1H-imidazol-1-yl)ethanol], the melting point came to 248 °C. Further, the negative logarithm of the IC50 (pIC50) in data set [1] is 7.30. For `Cc1cccc(-c2n[nH]cc2-c2ccc(F)c(-c3ccc(N4CCOCC4)cn3)c2)n1` [Example 179, 4-(6-{2-Fluoro-5-[3-(6-methylpyridin-2-yl)-1H-pyrazol-4-yl]phenyl}pyridin-3-yl)morpholine] the same measures were 88 to 90 °C and 7.40.

On to `Cc1cccc(-c2n[nH]cc2-c2ccc(F)c(-c3ccc(CN4CCOCC4)cn3)c2)n1` [Example 181, 4-[(6-{2-Fluoro-5-[3-(6-methylpyridin-2-yl)-1H-pyrazol-4-yl]phenyl}pyridin-3-yl)methyl]morpholine], for which the melting point fell in the range of 68 to 70 °C. In data set [1], the pIC50 was 7.70. For `Cc1cccc(-c2n[nH]cc2-c2ccc(F)c(-c3cc[nH]c3)c2)n1` [Example 189, 2-{4-[4-Fluoro-3-(1H-pyrrol-3-yl)phenyl]-1H-pyrazol-3-yl}-6-methylpyridine] the same measures were 162 to 164 °C and 7.70. With `Cc1cccc(-c2n[nH]cc2-c2ccc(F)c(-c3ccc(S(N)(=O)=O)cc3)c2)n1` [Example 190, 2′-Fluoro-5′-[3-(6-methylpyridin-2-yl)-1H-pyrazol-4-yl]-1,1′-biphenyl-4-sulfonamide], the melting point was 115 to 118 °C. For the same molecule, the pIC50 in data set [1] is 7.40.

With `Cc1cccc(-c2n[nH]cc2-c2ccc(F)c(-c3cn[nH]c3)c2)n1` [Example 194, 2-{4-[4-Fluoro-3-(1H-pyrazol-4-yl)phenyl]-1H-pyrazol-3-yl}-6-methylpyridine], the melting point fell in the range of 110 to 112 °C. In data set [1], the pIC50 is 8.00.

`Cc1cccc(-c2n[nH]cc2-c2ccc(F)c(-c3cnn(C)c3)c2)n1` [Example 195, 2-{4-[4-Fluoro-3-(1-methyl-1H-pyrazol-4-yl)phenyl]-1H-pyrazol-3-yl}-6-methylpyridine] gave a melting point of 155 to 156 °C. Further, in data set [1], the pIC50 is 8.00. The corresponding values for `NS(=O)(=O)c1ccc(-c2cc(-c3c[nH]nc3-c3ccccn3)ccc2F)cc1` [Example 202, 2′-Fluoro-5′-(3-pyridin-2-yl-1H-pyrazol-4-yl)-1,1′-biphenyl-4-sulfonamide] are 128 °C and 6.54.

As for `Cc1cccc(-c2n[nH]cc2-c2ccc(F)c(-c3c[nH]cn3)c2)n1` [Example 206, 2-{4-[4-Fluoro-3-(1H-imidazol-4-yl)phenyl]-1H-pyrazol-3-yl}-6-methylpyridine], the melting point lay in the range of 229 to 233 °C. Also, the pIC50 in data set [1] is 8.00.

The record behind these values is patent publication US20070275968A1, “Substituted Biphenyl Derivative” (priority 2004, published 2007).
